Experimental data as given in US20200339625A1, “NOVEL RADIOMETAL-BINDING COMPOUNDS FOR DIAGNOSIS OR TREATMENT OF PROSTATE SPECIFIC MEMBRANE ANTIGEN-EXPRESSING CANCER” (PROVINCIAL HEALTH SERVICES AUTHORITY, priority 2017, published 2020).

What was measured:
human serum = test: Plasma protein binding assay; type: in vitro ADME; conditions: for free radioligand: human serum; for filter-bound radioactivity: n=3
Protocol: 1.16 Plasma Protein Binding Assay
Plasma protein binding assays were performed according to literature methods.^19 Briefly, 37 kBq of ^177Lu-PSMA-617 or ^177Lu-HTK01169 in 50 μL PBS was added into 200 μL human serum and the mixture was incubated at room temperature for […]. The mixture was then loaded onto a membrane filter (Nanosep®, 30 K, Pall Corporation, USA) and centrifuged for 45 min (30,130×g). Saline (50 μL) was added and centrifugation was continued for another 15 min. The top part with the membrane filter and the bottom part with the solution were counted on a gamma counter. For control, saline was used in place of human serum.

[1] = test system: mice bearing LNCaP tumor xenografts; test: SPECT/CT imaging of 177Lu-labeled compounds; type: in vivo; conditions: for size of LNCaP tumor xenografts over time: injection of about 37 MBq, SPECT/CT
Protocol: SPECT/CT imaging and biodistribution were performed using NOD-scid IL2Rgammanu^null (NSG) male mice, and the endoradiotherapy study was conducted using NOD.Cg-Rag1^tm1MomII2rg^tm1WjI/SzJ (NRG) male mice. The mice were maintained and the experiments were conducted in according to the guidelines established by the Canadian Council on Animal Care and approved by Animal Ethics Committee of the University of British Columbia. Mice were anesthetized by inhalation with 2% isoflurane in oxygen, and implanted subcutaneously with 1×10^7 LNCaP cells posterior to the left shoulder. Mice were used for studies when the tumor reached 5-8 mm in diameter 5-6 weeks after inoculation.
SPECT/CT imaging experiments were conducted using the MILabs (Utrecht, the Netherlands) U-SPECT-II/CT scanner. Each tumor-bearing mouse was injected with ≠37 MBq of ^177Lu-labeled PSMA-617 or HTK01169 through the tail vein under anesthesia (2% isoflurane in oxygen). The mice were allowed to recover and roam freely in their cage and imaged at 4, 24, 72 and 120 hours after injection. At each time point, the mice were sedated again and positioned in the scanner. A 5-min CT scan was conducted first for anatomical reference with a voltage setting at 60 kV and current at 615 μA followed by a 60-min static emission scan acquired in list mode using an ultra-high resolution multi-pinhole rat-mouse (1 mm pinhole size) collimator. Data were reconstructed using the U-SPECT II software with a 20% window width on three energy windows. The photopeak window was centered at 208 keV, with lower scatter and upper scatter windows centered at 170 and 255 keV, respectively. The images were reconstructed using the ordered subset expectation maximization algorithm (3 iterations, 16 subsets), and a 0.5 mm post-processing Gaussian filter. Images were decay corrected to injection time in PMOD (PMOD Technologies, Switzerland) then converted to DICOM for qualitative visualization in the Inveon Research Workplace software (Siemens Medical Solutions USA, Inc.).

[2] = Radiation dosimetry calculation (OLINDA), extrapolated to humans (male); design: species or system human
Protocol: (§1) Internal dosimetry estimates were calculated using the organ level internal dose assessment (OLINDA) software v.2.0.^37 These estimates were performed for the mouse using the 25 g MOBY phantom,^38 for humans using the NURBS model for the adult male,^39 and for the tumors using the previously reported unit density sphere model.^40 All the phantoms and the sphere model are available in OLINDA and require the input of the total number of decays normalized by injected activity in units of MBq×h/MBq for each of the source organ/tumor.
Extrapolation of the mice biodistribution data to humans was performed using the method proposed by Kirschner et al.^41 and shown in the following equation: […]
Where morgan is the mass of the organ and M represents the total body mass. The subscripts indicate whether the values correspond to human or mouse. Masses for the organs and total body weight were taken from the simulated masses of the phantoms in OLINDA. […] The % ID/g of the blood was assumed to be the one for the heart contents of the phantom. This value was also used to calculate the bone marrow uptake based on the method described by Wessels et al.^42 in which we assumed a hematocrit fraction of 0.40 based on the patient values shown on that study. At the end, red marrow values used the blood measurements scaled by a factor of 0.32. In the human case, the fat, muscle, and seminal vesicles that are present in the biodistribution data are not modelled in the phantom so the numbers of decays present in these regions were included in the remainder of the body. The data was again fitted as for the mouse case and the values for the total number of decays in units of MBq×h/MBq were inputted in OLINDA.

LNCaP tumors = test: Radiation dosimetry calculation, unit density sphere model; design: species or system mice
Protocol: as §1
Lastly, the numbers of decays in the tumors were also calculated based on the biodistribution data of the mice and the values were inputted into the sphere model available in OLINDA.

[3] = test system: metastatic prostate cancer; conditions: cited from earlier work
[4] = test system: PSMA-expressing PC-3 PIP tumors; conditions: 5 MBq; cited from earlier work
[5] = incubated with saline (control)
[6] = source organ Adrenals, human male
[7] = source organ Cortical bone, human male
[8] = source organ Heart contents, human male
[9] = source organ Heart wall, human male
[10] = source organ Kidneys, human male
[11] = source organ Left colon, human male
[12] = source organ Pancreas, human male
[13] = source organ Rectum, human male
[14] = source organ Red marrow, human male
[15] = source organ Remainder of the body, human male
[16] = source organ Right colon, human
[17] = source organ Small Intestine, human
[18] = source organ Spleen, human male
[19] = source organ Stomach contents, human male
[20] = source organ Testes, human male
[21] = source organ Urinary bladder contents, human male

Structure (SMILES): O=C([O-])CN1CCN(CC(=O)[O-])CCN(CC(=O)NCCCC[C@H](NC(=O)[C@H](CCC(=O)O)NC(=O)CCCc2ccc(I)cc2)C(=O)NC[C@H]2CC[C@H](C(=O)N[C@@H](Cc3ccc4ccccc4c3)C(=O)NCCCC[C@H](NC(=O)N[C@@H](CCC(=O)O)C(=O)O)C(=O)O)CC2)CCN(CC(=O)[O-])CC1.[177Lu+3] [^177Lu-HTK01169]
- free radioligand (human serum): < 1%
- filter-bound radioactivity (human serum; incubated with human serum): 99.2±0.02%
- filter-bound radioactivity (human serum; [5]): 25.8±3.42%
- excretion pathway ([1]; SPECT/CT images): excreted mainly via the renal pathway
- tumor uptake (qualitative) ([1]; SPECT/CT images, compared with 177Lu-PSMA-617): Higher and sustained tumor uptake
- renal retention (qualitative) ([1]; SPECT/CT images, early time points (4 and 24 h), compared with 177Lu-PSMA-617): higher renal retention
- size of LNCaP tumor xenografts over time [1]: quick reduction in size
- Kinetics value [2, 6]: 1.55E−02 MBq-h/MBq
- Kinetics value ([2]; source organ Brain, human male): 3.42E−02 MBq-h/MBq
- Kinetics value [2, 7]: 1.03E−02 MBq-h/MBq
- Kinetics value [2, 8]: 3.16E−01 MBq-h/MBq
- Kinetics value [2, 9]: 7.97E−02 MBq-h/MBq
- Kinetics value [2, 10]: 6.81E+00 MBq-h/MBq
- Kinetics value [2, 11]: 1.99E−02 MBq-h/MBq
- Kinetics value ([2]; source organ Liver, human male): 4.98E−01 MBq-h/MBq
- Kinetics value ([2]; source organ Lungs, human male): 6.03E−01 MBq-h/MBq
- Kinetics value [2, 12]: 2.05E−02 MBq-h/MBq
- Kinetics value [2, 13]: 9.27E−03 MBq-h/MBq
- Kinetics value [2, 14]: 2.46E−01 MBq-h/MBq
- Kinetics value [2, 15]: 1.21E+01 MBq-h/MBq
- Kinetics value [2, 16]: 1.99E−02 MBq-h/MBq
- Kinetics value [2, 17]: 8.61E−02 MBq-h/MBq
- Kinetics value [2, 18]: 2.03E−01 MBq-h/MBq
- Kinetics value [2, 19]: 1.44E−02 MBq-h/MBq
- Kinetics value [2, 20]: 1.25E−02 MBq-h/MBq
- Kinetics value [2, 21]: 1.72E−01 MBq-h/MBq
- kinetic uptake value used as input in OLINDA (LNCaP tumors): 31.72 MBq-h/MBq

Structure (SMILES): O=C([O-])CN1CCN(CC(=O)[O-])CCN(CC(=O)NCC2CCC(C(=O)N[C@@H](Cc3ccc4ccccc4c3)C(=O)NCCCC[C@H](NC(=O)N[C@@H](CCC(=O)O)C(=O)O)C(=O)O)CC2)CCN(CC(=O)[O-])CC1.[177Lu+3] (stereo partly shown) [^177Lu-PSMA-617, reference compound]
- free radioligand (human serum): ~17%
- filter-bound radioactivity (human serum; incubated with human serum): 82.7±0.32%
- filter-bound radioactivity (human serum; [5]): 5.21±1.42%
- excretion pathway ([1]; SPECT/CT images): excreted mainly via the renal pathway
- size of LNCaP tumor xenografts over time [1]: quick reduction in size
- Kinetics value [2, 6]: 1.00E−03 MBq-h/MBq
- Kinetics value ([2]; source organ Brain, human male): 6.71E−03 MBq-h/MBq
- Kinetics value [2, 7]: 5.30E−03 MBq-h/MBq
- Kinetics value [2, 8]: 4.29E−03 MBq-h/MBq
- Kinetics value [2, 9]: 2.02E−03 MBq-h/MBq
- Kinetics value [2, 10]: 3.98E−01 MBq-h/MBq
- Kinetics value [2, 11]: 1.53E−03 MBq-h/MBq
- Kinetics value ([2]; source organ Liver, human male): 2.32E−02 MBq-h/MBq
- Kinetics value ([2]; source organ Lungs, human male): 2.41E−02 MBq-h/MBq
- Kinetics value [2, 12]: 8.55E−04 MBq-h/MBq
- Kinetics value [2, 13]: 7.16E−04 MBq-h/MBq
- Kinetics value [2, 14]: 3.15E−03 MBq-h/MBq
- Kinetics value [2, 15]: 5.39E−01 MBq-h/MBq
- Kinetics value [2, 16]: 1.53E−03 MBq-h/MBq
- Kinetics value [2, 17]: 6.65E−03 MBq-h/MBq
- Kinetics value [2, 18]: 6.93E−03 MBq-h/MBq
- Kinetics value [2, 19]: 5.06E−03 MBq-h/MBq
- Kinetics value [2, 20]: 3.72E−04 MBq-h/MBq
- Kinetics value [2, 21]: 3.15E−01 MBq-h/MBq
- kinetic uptake value used as input in OLINDA (LNCaP tumors): 3.80 MBq-h/MBq
- complete response rate ([3]; human, in vivo): < 7%
- patients with progressive disease after treatment ([3]; human, in vivo): up to 33%
- side effects ([3]; human, in vivo): without severe side effects
- patients having >50% reduction in PSA levels ([3]; metastatic prostate cancer): 32-60%
- objective response ([3]; phase 2 Australian study, patients with measurable nodal or visceral disease): 82%
- Median survival [4]: 32 days
